According to ChEMBL document CHEMBL4507278 (2021):

Tests used:
[1] = tested on: Tyrosine-protein kinase ABL1 (Homo sapiens), P00519 [Y253F]; settings: Compound concentration 1000.0 nM
[2] = biological target: BMP-2-inducible protein kinase (Homo sapiens) (UniProt Q9NSY1); settings: Compound concentration 1000.0 nM
[3] = biological target: Calcium/calmodulin-dependent protein kinase type 1G (Homo sapiens) (UniProt Q96NX5); settings: Compound concentration 1000.0 nM
[4] = biological target: Vascular endothelial growth factor receptor 1 (Homo sapiens) (UniProt P17948); settings: Compound concentration 1000.0 nM
[5] = biological target: Mitogen-activated protein kinase kinase kinase 15 (Homo sapiens) (UniProt Q6ZN16); settings: Compound concentration 1000.0 nM
[6] = biological target: Megakaryocyte-associated tyrosine-protein kinase (Homo sapiens) (UniProt P42679); settings: Compound concentration 1000.0 nM
[7] = biological target: STE20/SPS1-related proline-alanine-rich protein kinase (Homo sapiens) (UniProt Q9UEW8); settings: Compound concentration 1000.0 nM
[8] = biological target: STE20-like serine/threonine-protein kinase (Homo sapiens) (UniProt Q9H2G2); settings: Compound concentration 1000.0 nM
[9] = biological target: Serine/threonine-protein kinase PAK 2 (Homo sapiens) (UniProt Q13177); settings: Compound concentration 1000.0 nM
[10] = biological target: Serine/threonine-protein kinase B-raf (Homo sapiens) (UniProt P15056); settings: Compound concentration 1000.0 nM
[11] = biological target: Tyrosine-protein kinase Blk (Homo sapiens) (UniProt P51451); settings: Compound concentration 1000.0 nM
[12] = biological target: Calcium/calmodulin-dependent protein kinase type IV (Homo sapiens) (UniProt Q16566); settings: Compound concentration 1000.0 nM
[13] = biological target: Dual specificity protein kinase CLK1 (Homo sapiens) (UniProt P49759); settings: Compound concentration 1000.0 nM
[14] = biological target: Cyclin-dependent kinase 4 (Homo sapiens) (UniProt P11802); settings: Compound concentration 1000.0 nM
Sequence of Cyclin-dependent kinase 4 (Homo sapiens) (P11802 whole entry): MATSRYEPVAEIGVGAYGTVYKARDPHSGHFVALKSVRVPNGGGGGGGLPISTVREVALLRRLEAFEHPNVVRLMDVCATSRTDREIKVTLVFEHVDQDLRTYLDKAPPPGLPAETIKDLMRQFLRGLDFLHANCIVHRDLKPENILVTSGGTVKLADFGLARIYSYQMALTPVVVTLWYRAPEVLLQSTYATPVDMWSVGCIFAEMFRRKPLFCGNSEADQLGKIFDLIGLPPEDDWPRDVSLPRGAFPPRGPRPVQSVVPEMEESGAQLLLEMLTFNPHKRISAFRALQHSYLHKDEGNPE

[15] = biological target: Cyclin-dependent kinase-like 5 (Homo sapiens) (UniProt O76039); settings: Compound concentration 1000.0 nM
[16] = biological target: Ephrin type-A receptor 8 (Homo sapiens) (UniProt P29322); settings: Compound concentration 1000.0 nM
[17] = biological target: Homeodomain-interacting protein kinase 3 (Homo sapiens) (UniProt Q9H422); settings: Compound concentration 1000.0 nM
Sequence of Homeodomain-interacting protein kinase 3 (Homo sapiens) (Q9H422 whole entry, looked up): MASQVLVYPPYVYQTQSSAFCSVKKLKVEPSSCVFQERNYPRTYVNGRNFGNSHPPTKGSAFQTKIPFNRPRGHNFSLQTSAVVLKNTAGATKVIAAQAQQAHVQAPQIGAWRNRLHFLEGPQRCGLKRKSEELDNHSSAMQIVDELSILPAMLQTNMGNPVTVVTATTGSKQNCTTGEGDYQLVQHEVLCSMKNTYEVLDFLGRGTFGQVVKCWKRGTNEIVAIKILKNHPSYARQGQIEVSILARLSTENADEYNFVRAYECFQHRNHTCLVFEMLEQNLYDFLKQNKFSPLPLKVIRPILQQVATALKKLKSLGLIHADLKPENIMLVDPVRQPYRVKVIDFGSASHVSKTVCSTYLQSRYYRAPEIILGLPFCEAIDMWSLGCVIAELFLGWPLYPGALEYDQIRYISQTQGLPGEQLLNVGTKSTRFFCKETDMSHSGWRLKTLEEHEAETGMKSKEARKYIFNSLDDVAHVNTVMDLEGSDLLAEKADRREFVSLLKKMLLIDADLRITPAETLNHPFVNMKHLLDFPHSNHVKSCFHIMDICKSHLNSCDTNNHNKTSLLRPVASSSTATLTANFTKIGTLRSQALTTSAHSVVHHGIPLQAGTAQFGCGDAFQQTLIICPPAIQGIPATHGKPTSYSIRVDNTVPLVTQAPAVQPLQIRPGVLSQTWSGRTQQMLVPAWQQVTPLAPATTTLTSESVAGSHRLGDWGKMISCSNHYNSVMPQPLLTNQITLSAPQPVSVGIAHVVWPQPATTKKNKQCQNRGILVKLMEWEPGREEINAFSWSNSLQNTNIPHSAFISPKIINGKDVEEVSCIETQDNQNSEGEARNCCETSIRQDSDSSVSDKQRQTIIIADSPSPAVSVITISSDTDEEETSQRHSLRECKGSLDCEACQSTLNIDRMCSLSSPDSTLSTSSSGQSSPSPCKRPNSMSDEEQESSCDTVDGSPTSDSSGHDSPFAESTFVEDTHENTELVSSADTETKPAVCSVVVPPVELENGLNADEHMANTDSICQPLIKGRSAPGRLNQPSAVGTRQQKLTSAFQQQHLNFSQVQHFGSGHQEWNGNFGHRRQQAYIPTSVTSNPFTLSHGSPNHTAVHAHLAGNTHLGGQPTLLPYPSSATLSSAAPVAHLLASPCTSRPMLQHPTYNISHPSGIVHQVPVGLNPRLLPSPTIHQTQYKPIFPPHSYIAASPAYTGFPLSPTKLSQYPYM

[18] = tested on: Tyrosine-protein kinase ABL1 (Homo sapiens), P00519 [T315I]; settings: Compound concentration 1000.0 nM
[19] = biological target: Alpha-2C adrenergic receptor (Homo sapiens) (UniProt P18825); settings: Compound concentration 10.0 uM
[20] = biological target: Serine/threonine-protein kinase Chk2 (Homo sapiens) (UniProt O96017); settings: Compound concentration 1000.0 nM
[21] = biological target: Bone morphogenetic protein receptor type-2 (Homo sapiens) (UniProt Q13873); settings: Compound concentration 1000.0 nM
Sequence of Bone morphogenetic protein receptor type-2 (Homo sapiens) (Q13873 whole entry): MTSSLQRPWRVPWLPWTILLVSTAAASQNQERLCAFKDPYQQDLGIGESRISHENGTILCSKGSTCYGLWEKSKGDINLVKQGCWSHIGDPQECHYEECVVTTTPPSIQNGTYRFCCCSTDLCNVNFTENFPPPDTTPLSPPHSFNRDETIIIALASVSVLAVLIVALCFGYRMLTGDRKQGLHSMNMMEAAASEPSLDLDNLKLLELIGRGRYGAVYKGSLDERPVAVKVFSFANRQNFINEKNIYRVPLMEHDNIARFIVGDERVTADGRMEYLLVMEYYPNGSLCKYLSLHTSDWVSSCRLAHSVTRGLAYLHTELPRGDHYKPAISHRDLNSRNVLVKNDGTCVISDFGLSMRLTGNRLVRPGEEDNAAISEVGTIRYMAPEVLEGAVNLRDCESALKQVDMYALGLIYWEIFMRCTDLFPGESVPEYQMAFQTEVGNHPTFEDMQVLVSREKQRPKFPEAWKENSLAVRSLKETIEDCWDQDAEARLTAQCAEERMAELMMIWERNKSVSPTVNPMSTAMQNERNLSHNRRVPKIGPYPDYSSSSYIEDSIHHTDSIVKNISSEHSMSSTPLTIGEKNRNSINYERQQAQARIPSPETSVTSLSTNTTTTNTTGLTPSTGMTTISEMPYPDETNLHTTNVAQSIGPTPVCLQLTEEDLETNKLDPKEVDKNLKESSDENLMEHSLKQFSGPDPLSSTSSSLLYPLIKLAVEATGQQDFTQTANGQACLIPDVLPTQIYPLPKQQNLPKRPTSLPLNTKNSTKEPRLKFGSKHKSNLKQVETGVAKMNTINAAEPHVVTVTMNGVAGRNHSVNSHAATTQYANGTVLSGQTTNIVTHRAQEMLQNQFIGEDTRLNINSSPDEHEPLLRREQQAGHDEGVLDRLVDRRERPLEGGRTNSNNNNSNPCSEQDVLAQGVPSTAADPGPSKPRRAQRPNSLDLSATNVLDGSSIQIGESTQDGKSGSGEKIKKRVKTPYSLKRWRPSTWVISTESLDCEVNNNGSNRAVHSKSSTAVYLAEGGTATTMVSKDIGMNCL

[22] = biological target: Tyrosine-protein kinase BTK (Homo sapiens) (UniProt Q06187); settings: Compound concentration 1000.0 nM
Sequence of Tyrosine-protein kinase BTK (Homo sapiens) (Q06187 whole entry): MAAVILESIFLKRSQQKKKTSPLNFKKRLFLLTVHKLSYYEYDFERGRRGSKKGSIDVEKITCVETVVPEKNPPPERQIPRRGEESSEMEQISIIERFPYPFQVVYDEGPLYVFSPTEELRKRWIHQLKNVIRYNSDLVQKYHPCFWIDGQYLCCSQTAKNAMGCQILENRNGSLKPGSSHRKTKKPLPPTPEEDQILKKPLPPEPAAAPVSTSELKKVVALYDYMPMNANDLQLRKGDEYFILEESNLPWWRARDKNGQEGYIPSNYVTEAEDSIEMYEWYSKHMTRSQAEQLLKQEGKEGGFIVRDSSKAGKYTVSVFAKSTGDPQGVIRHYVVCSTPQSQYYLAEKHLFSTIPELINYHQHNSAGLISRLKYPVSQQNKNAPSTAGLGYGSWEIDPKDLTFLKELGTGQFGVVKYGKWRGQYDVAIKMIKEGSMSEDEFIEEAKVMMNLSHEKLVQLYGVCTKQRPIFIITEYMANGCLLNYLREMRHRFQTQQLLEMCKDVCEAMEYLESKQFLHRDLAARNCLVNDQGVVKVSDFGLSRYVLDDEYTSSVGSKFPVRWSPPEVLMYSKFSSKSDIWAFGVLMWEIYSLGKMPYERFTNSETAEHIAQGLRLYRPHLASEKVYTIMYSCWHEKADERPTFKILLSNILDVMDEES

[23] = biological target: Protein kinase C eta type (Homo sapiens) (UniProt P24723); settings: Compound concentration 1000.0 nM
[24] = biological target: Serine/threonine-protein kinase SIK2 (Homo sapiens) (UniProt Q9H0K1); settings: Compound concentration 1000.0 nM
[25] = biological target: Activin receptor type-1 (Homo sapiens) (UniProt Q04771); settings: Compound concentration 1000.0 nM
Sequence of Activin receptor type-1 (Homo sapiens) (Q04771 whole entry): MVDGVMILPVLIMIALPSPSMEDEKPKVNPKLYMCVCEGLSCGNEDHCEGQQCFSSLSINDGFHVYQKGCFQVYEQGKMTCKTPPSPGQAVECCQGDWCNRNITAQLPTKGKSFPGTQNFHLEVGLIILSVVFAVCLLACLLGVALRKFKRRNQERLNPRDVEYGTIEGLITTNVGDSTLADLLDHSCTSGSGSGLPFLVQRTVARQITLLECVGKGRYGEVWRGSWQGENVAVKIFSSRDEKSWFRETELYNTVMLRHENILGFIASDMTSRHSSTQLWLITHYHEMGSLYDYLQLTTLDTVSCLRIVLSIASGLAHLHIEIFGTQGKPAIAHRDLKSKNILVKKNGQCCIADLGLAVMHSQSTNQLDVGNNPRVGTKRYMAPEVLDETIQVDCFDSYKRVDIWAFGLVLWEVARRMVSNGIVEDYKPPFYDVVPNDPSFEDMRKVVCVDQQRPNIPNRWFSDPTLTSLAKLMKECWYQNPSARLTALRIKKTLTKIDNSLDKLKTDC

[26] = biological target: Protein-tyrosine kinase 6 (Homo sapiens) (UniProt Q13882); settings: Compound concentration 1000.0 nM
[27] = biological target: Serine/threonine-protein kinase 32C (Homo sapiens) (UniProt Q86UX6); settings: Compound concentration 1000.0 nM
Sequence of Serine/threonine-protein kinase 32C (Homo sapiens) (Q86UX6 whole entry): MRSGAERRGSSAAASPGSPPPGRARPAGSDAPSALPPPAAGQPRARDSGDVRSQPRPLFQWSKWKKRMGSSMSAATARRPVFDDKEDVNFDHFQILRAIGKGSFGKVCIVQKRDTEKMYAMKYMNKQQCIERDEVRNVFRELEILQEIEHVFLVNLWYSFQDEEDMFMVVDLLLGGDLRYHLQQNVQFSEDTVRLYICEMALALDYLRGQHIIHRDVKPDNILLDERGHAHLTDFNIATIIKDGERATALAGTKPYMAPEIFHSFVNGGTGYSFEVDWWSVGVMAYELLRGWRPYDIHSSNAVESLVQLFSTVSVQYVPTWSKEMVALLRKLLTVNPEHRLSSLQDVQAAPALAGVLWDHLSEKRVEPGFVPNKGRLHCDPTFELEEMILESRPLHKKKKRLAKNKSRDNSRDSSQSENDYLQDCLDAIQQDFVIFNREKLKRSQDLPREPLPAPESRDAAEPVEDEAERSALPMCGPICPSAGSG

[28] = biological target: Serine/threonine-protein kinase pim-3 (Homo sapiens) (UniProt Q86V86); settings: Compound concentration 1000.0 nM
[29] = biological target: Cyclin-dependent kinase 5 (Homo sapiens) (UniProt Q00535); settings: Compound concentration 1000.0 nM
[30] = biological target: Cyclin-dependent kinase 14 (Homo sapiens) (UniProt O94921); settings: Compound concentration 1000.0 nM
[31] = biological target: Dual specificity protein kinase CLK2 (Homo sapiens) (UniProt P49760); settings: Compound concentration 1000.0 nM
[32] = biological target: Ribosomal protein S6 kinase alpha-6 (Homo sapiens) (UniProt Q9UK32); settings: Compound concentration 1000.0 nM
[33] = biological target: High affinity nerve growth factor receptor (Homo sapiens) (UniProt P04629); settings: Compound concentration 1000.0 nM
[34] = biological target: Sodium-dependent serotonin transporter (Homo sapiens) (UniProt P31645); settings: Compound concentration 10.0 uM
[35] = tested on: Receptor-type tyrosine-protein kinase FLT3 (Homo sapiens), P36888 [K663Q]; settings: Compound concentration 1000.0 nM
[36] = biological target: Testis-specific serine/threonine-protein kinase 3 (Homo sapiens) (UniProt Q96PN8); settings: Compound concentration 1000.0 nM
Sequence of Testis-specific serine/threonine-protein kinase 3 (Homo sapiens) (Q96PN8 whole entry): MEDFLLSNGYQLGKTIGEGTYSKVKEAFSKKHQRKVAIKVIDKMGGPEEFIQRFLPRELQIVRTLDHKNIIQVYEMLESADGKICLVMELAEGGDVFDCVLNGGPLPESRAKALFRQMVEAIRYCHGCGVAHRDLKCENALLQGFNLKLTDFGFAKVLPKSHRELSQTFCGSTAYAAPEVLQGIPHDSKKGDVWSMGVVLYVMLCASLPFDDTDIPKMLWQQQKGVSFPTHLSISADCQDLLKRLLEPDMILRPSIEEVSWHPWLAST

[37] = biological target: Mitogen-activated protein kinase kinase kinase kinase 4 (Homo sapiens) (UniProt O95819); settings: Compound concentration 1000.0 nM
[38] = biological target: Mitogen-activated protein kinase 1 (Homo sapiens) (UniProt P28482); settings: Compound concentration 1000.0 nM
[39] = biological target: 5'-AMP-activated protein kinase catalytic subunit alpha-1 (Homo sapiens) (UniProt Q13131); settings: Compound concentration 1000.0 nM
Sequence of 5'-AMP-activated protein kinase catalytic subunit alpha-1 (Homo sapiens) (Q13131 whole entry, looked up): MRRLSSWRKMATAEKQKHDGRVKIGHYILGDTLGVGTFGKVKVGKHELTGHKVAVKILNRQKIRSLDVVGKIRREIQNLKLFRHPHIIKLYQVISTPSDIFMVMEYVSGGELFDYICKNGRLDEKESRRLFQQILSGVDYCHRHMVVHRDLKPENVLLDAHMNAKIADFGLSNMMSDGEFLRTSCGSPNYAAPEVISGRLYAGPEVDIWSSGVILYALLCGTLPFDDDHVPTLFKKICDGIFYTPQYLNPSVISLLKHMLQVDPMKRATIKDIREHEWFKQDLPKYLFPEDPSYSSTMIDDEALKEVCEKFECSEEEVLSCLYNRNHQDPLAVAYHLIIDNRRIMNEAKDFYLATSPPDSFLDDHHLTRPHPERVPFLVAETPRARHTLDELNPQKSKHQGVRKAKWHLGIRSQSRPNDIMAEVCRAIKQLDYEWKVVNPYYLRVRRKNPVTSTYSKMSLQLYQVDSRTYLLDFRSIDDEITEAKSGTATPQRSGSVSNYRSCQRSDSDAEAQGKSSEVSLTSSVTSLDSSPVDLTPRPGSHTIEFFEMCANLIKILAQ

[40] = biological target: Beta-2 adrenergic receptor (Homo sapiens) (UniProt P07550); settings: Compound concentration 10.0 uM
[41] = biological target: Serine/threonine-protein kinase MRCK alpha (Homo sapiens) (UniProt Q5VT25); settings: Compound concentration 1000.0 nM
[42] = biological target: Tyrosine-protein kinase HCK (Homo sapiens) (UniProt P08631); settings: Compound concentration 1000.0 nM
[43] = biological target: Serine/threonine-protein kinase PAK 5 (Homo sapiens) (UniProt Q9P286); settings: Compound concentration 1000.0 nM
[44] = biological target: Muscarinic acetylcholine receptor M5 (Homo sapiens) (UniProt P08912); settings: Compound concentration 10.0 uM
[45] = biological target: Serine/threonine-protein kinase mTOR (Homo sapiens) (UniProt P42345); settings: Compound concentration 1000.0 nM
[46] = biological target: Misshapen-like kinase 1 (Homo sapiens) (UniProt Q8N4C8); settings: Compound concentration 1000.0 nM

CS(=O)(=O)NCC[C@H](NC(=O)c1cncc2c1cnn2-c1ccc(F)cc1)c1ccnc(S(C)(=O)=O)c1 [BI 9307]
inactive: residual activity [1] 95% | residual activity [2] 92% | residual activity [3] 100% | residual activity [4] 90% | residual activity [5] 100% | residual activity [6] 100% | residual activity [7] 80% | residual activity [8] 100% | residual activity [9] 71% | residual activity [10] 79% | residual activity [11] 100% | residual activity [12] 100% | residual activity [13] 93% | residual activity [14] 100% | residual activity [15] 100% | residual activity [16] 100% | residual activity [17] 100% | residual activity [18] 100% | inhibition [19] -2.08% | residual activity [20] 77% | residual activity [21] 100% | residual activity [22] 100% | residual activity [23] 80% | residual activity [24] 100% | residual activity [25] 100% | residual activity [26] 96% | residual activity [27] 100% | residual activity [28] 100% | residual activity [29] 100% | residual activity [30] 100% | residual activity [31] 100% | residual activity [32] 100% | residual activity [33] 97% | inhibition [34] -7.52% | residual activity [35] 100% | residual activity [36] 100% | residual activity [37] 86% | residual activity [38] 100% | residual activity [39] 100% | inhibition [40] -5.93% | residual activity [41] 100% | residual activity [42] 100% | residual activity [43] 99% | inhibition [44] 5.99% | residual activity [45] 88% | residual activity [46] 100%

CS(=O)(=O)c1cc(C2(NC(=O)c3cncc4c3cnn4-c3ccc(F)cc3)CC2)ccn1 [BI 639667]
inactive: residual activity [1] 91% | residual activity [2] 89% | residual activity [3] 100% | residual activity [4] 100% | residual activity [5] 67% | residual activity [6] 100% | residual activity [7] 58% | residual activity [8] 100% | residual activity [9] 100% | residual activity [10] 87% | residual activity [11] 100% | residual activity [12] 100% | residual activity [13] 98% | residual activity [14] 100% | residual activity [15] 89% | residual activity [16] 99% | residual activity [17] 85% | residual activity [18] 73% | inhibition [19] -6.8% | residual activity [20] 100% | residual activity [21] 99% | residual activity [22] 97% | residual activity [23] 100% | residual activity [24] 100% | residual activity [25] 100% | residual activity [26] 80% | residual activity [27] 81% | residual activity [28] 100% | residual activity [29] 100% | residual activity [30] 100% | residual activity [31] 100% | residual activity [32] 64% | residual activity [33] 96% | inhibition [34] -2.94% | residual activity [35] 100% | residual activity [36] 100% | residual activity [37] 88% | residual activity [38] 94% | residual activity [39] 99% | inhibition [40] -7.76% | residual activity [41] 100% | residual activity [42] 100% | residual activity [43] 100% | inhibition [44] 3.92% | residual activity [45] 100% | residual activity [46] 100%
